Results as given in patent US9180164B2, “Compounds and methods of modulating angiogenesis” (THE CLEVELAND CLINIC FOUNDATION, priority 2011, dated 2015).
Where no end group is shown, it is not given here. [ ]: non-standard residue; d: D form. Gla = N[C@@H](CC(C(=O)O)C(=O)O)C(=O)O

What was measured:
[1] = test system: human melanoma cells (WM-164); assay: Apoptosis in melanoma cells; format: cell-based; details: 100 μM
Procedure: To the examine the effect of beta-3 integrin cytoplasmic domain inhibitory peptides on tumor progressino we treated human melanoma cells (WM-164) with either 100 μM of control peptide or with equal amount of inhibiting peptide 07-240 (HIV-TAT-(NPLXK) (SEQ ID NO: 7)), inhibiting peptide 07-241 (HIV-TAT-(NPLDK) (SEQ ID NO: 9)), inhibiting peptide 07-243 (HIV-TAT-(NITXR) (SEQ ID NO: 8)), and inhibiting peptide 07-244 (HIV-TAT-(NITDR) (SEQ ID NO: 10)), where X is γ-carboxyglutamic acid.

WT mouse aortic rings = assay: Mouse aortic ring angiogenesis; format: cell-based; details: 50 μM, in the presence of VEGF, 1 week
Procedure: Thoracic aortas from WT and DiYF mice were removed under aseptic conditions and spliced into 1 mm thick rings. Thoracic aortic rings were placed between two layers of growth factor depleted Matrigel and allowed to solidify at room temperature. Matrigels were overlaid with either with DMEM or endothelial growth medium with or without VEGF (40 ng/ml). Microvessel outgrowth was visualized by phase contrast microscopy and numbers of vessels growing from each aortic ring were counted and photographed every two days using Leica phase contrast microscope.
To examine the effect of cyclic inhibiting peptides on mouse aortic ring angiogensis, thoracic aortas from WT mice were removed under aseptic conditions and spliced into 1 mm thick rings. Thoracic aortic rings were placed between two layers of growth factor depleted Matrigel and allowed to solidify at room temperature. Matrigels were administered VEGF and 50 μM control peptides or with equal amounts of inhibiting peptide 1 (RR cyclic (NPLXK) (SEQ ID NO: 39), disulfide bridge cycle), inhibiting peptide 2 (RR cyclic (NITXR) (SEQ ID NO: 40), disulfide bridge cycle), inhibiting peptide 3 (RRRKKRKRRR cyclic (NPLXK) (SEQ ID NO: 41), disulfide bridge cycle), and inhibiting peptide 4 (RRRKKRKRRR cyclic (NITXR) (SEQ ID NO: 42), disulfide bridge cycle), where X is γ-carboxyglutamic acid. Microvessel outgrowth was visualized by phase contrast microscopy and numbers of vessels growing from each aortic ring were counted and photographed every two days using Leica phase contrast microscope after 1 week.

[2] = test system: subcutaneously implanted tumors; assay: Progression of subcutaneously implanted tumors; format: in vivo, mice; details: 100 μM
Procedure: To the examine the effect of beta-3 integrin cytoplasmic domain inhibitory peptides on tumor progressino we subcutaneously implanted tumors in mice and then treated the mice with either 100 μM of control peptide or with equal amount of inhibiting peptide 1 (RR cyclic (NPLXK) (SEQ ID NO: 7), disulfide bridge cycle), inhibiting peptide 2 (RR cyclic (NITXR) (SEQ ID NO: 8), disulfide bridge cycle), inhibiting peptide 3 ([…] cyclic (NPLXK) (SEQ ID NO: 7), disulfide bridge cycle), inhibiting peptide 4 ([…] cyclic (NITXR) (SEQ ID NO: 8), disulfide bridge cycle), inhibiting peptide 5 (RR linear (NPLXK) (SEQ ID NO: 7)); and inhibiting peptide 6 (RR linear (NITXR) (SEQ ID NO: 8)), where X is γ-carboxyglutamic acid.

αvβ3 integrin [3] = molecular target: T1, αvβ3 integrin (Mus musculus, UniProt O54890+P43406); assay: Fibrinogen binding assay (FACS); format: cell-based; details: WT EC; 20 ng/ml VEGF or 1 mM MnCl2
T1 construct: endogenous in cells; host or cells: primary mouse lung endothelial cells
T1 sequence (O54890 26-787): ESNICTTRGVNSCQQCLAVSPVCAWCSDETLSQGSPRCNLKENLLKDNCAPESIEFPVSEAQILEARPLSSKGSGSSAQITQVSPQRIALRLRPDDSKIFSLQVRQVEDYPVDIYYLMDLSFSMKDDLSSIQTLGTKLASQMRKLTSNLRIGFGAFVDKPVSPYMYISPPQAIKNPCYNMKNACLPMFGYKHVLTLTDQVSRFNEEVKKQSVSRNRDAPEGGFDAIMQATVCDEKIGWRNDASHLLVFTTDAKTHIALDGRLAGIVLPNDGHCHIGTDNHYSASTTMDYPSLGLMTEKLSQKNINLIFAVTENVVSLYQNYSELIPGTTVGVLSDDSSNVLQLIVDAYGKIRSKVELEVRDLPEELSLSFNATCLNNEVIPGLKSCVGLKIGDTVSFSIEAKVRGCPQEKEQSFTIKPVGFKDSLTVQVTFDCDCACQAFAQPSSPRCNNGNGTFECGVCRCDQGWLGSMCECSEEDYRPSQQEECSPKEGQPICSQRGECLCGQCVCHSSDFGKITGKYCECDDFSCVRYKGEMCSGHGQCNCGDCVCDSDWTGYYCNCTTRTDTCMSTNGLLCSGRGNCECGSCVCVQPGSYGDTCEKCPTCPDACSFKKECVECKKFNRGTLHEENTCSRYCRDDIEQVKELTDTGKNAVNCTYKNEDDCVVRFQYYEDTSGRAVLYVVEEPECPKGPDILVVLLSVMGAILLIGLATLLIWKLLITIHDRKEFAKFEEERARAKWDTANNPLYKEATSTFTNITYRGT
T1 sequence (P43406 31-885 limits assumed): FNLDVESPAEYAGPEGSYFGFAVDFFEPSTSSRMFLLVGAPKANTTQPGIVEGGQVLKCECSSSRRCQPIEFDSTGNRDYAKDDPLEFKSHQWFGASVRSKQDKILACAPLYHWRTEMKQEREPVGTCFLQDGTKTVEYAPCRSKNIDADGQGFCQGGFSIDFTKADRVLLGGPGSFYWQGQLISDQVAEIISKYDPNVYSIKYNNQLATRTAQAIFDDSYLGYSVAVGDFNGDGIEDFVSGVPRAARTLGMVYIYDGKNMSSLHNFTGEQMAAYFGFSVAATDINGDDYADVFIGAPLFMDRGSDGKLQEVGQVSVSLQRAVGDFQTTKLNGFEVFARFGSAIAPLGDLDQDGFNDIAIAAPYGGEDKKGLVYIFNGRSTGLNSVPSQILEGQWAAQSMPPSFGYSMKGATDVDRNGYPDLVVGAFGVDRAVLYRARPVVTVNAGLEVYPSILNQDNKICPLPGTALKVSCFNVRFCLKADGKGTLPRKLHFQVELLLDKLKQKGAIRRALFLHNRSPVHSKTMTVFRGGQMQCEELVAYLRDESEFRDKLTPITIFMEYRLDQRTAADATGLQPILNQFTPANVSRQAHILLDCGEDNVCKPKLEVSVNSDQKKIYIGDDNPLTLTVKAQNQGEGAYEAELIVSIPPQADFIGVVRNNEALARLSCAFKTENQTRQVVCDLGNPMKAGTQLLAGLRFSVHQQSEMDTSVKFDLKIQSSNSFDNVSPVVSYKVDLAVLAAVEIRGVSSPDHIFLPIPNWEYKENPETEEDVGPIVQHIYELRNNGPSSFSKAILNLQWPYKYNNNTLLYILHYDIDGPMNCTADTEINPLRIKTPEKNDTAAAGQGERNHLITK
T1 sequence (P43406 887-1044 limits assumed): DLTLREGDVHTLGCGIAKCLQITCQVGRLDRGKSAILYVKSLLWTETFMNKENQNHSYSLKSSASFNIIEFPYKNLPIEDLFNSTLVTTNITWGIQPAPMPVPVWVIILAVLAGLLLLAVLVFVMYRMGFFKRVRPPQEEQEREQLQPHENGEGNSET
Procedure: (§1) To assess fibrinogen binding, semiconfluent wild type and DiYF mouse lung endothelial cells were serum starved for 4 h and further induced with 20 ng/ml VEGF-165, 20 ng/ml b-FGF or 1 mm MnC12. Fluorescein isothiocyanate (FITC)-labeled fibrinogen was added at a final concentration of 200 nM for 45 min. […] Fluorescence-activated cell sorting (FACS) was performed using a FACS Calibur (Becton Dickinson, San Jose, Calif.) and data were analyzed using CellQuest software program.

αvβ3 integrin [4] = assay: Fibrinogen binding assay (FACS); format: cell-based, mouse; details: DiYF EC; 20 ng/ml VEGF or 1 mM MnCl2
Procedure: as §1

αvβ3 integrin [5] = molecular target: T1, αvβ3 integrin; assay: WOW-1 binding assay, mouse lung endothelial cells; format: cell-based; details: WT EC; 20 ng/ml VEGF or 1 mM MnCl2
Procedure: (§2) Wild type and DiYF mouse lung endothelial cells were serum starved for 4 h and further stimulated with 20 ng/ml VEGF-165, 20 ng/ml b-FGF or 1 mm MnC12 separately. WoW-1 Fab was added at a final concentration of […], followed by addition of Fluorescein isothiocyanate (FITC) conjugated goat anti-mouse IgG at 10 μg/ml. After 30 min cells were fixed with 3.7% formaldehyde/PBS for 15 min, washed twice with 1×PBS and FACS was performed using a FACS Calibur (Becton Dickinson, San Jose, Calif.) instrument and data were analyzed using CellQuest software program.

αvβ3 integrin [6] = assay: WOW-1 binding assay, mouse lung endothelial cells; format: cell-based; details: DiYF EC; 20 ng/ml VEGF or 1 mM MnCl2
Procedure: as §2

In the case of “HIV-TAT-(NPLDK) (listed as Homo sapiens) [07-241]”, the “apoptosis in melanoma cells compared to a control” value (“apoptosis … compared to a control” below) [1] is reported as “induced apoptosis”.
“HIV-TAT-(NITDR) (listed as Homo sapiens) [07-244]” was tested, and the “apoptosis … compared to a control” value [1] was “induced apoptosis”.
For “RRRKKRKRRR cyclic (NPLXK) (RRRKKRKRRRNPL[Gla]K; disulfide (positions not given here); not fully specified; listed as Homo sapiens) [inhibiting peptide 3, X is γ-carboxyglutamic acid]”, the “angiogenesis of the mouse aortic rings (microvessel outgrowth)” value (“angiogenesis of the mouse aortic rings” below) (WT mouse aortic rings) was “inhibited angiogenesis” and the “tumor progression compared to a control” value [2] was “substantially reduced tumor progression”.
In the case of “RRRKKRKRRR cyclic (NITXR) (RRRKKRKRRRNIT[Gla]R; disulfide (positions not given here); not fully specified; also: cyclic, closure not given here; listed as Homo sapiens) [inhibiting peptide 4, X is γ-carboxyglutamic acid]”, the “angiogenesis of the mouse aortic rings” value (WT mouse aortic rings) is reported as “inhibited angiogenesis” and the “tumor progression compared to a control” value [2] is reported as “substantially reduced tumor progression”.
For “RR cyclic (NITXR) (RRNIT[Gla]R; disulfide (positions not given here); not fully specified; printed as RR cyclic (NITXR); also: cyclic, closure not given here; listed as Homo sapiens) [inhibiting peptide 2, X is γ-carboxyglutamic acid]”, the “angiogenesis of the mouse aortic rings” value (WT mouse aortic rings) was “inhibited angiogenesis” and the “tumor progression compared to a control” value [2] was “substantially reduced tumor progression”.
With [Cl][Mn][Cl] [MnCl2] the “increase of fibrinogen binding” value (αvβ3 integrin [3]) was “at least 40 fold”, the “increase of fibrinogen binding” value (αvβ3 integrin [4]) was 17 fold and the “increase in WOW-1 binding” value (αvβ3 integrin [5]) was 30 fold. For the same molecule, the “increase in WOW-1 binding” value (αvβ3 integrin [6]) was 14 fold.
In the case of “HIV-TAT-(NITXR) ({HIV‑TAT}-NIT[Gla]R; not fully specified; printed as HIV-TAT-(NITXR); listed as Homo sapiens) [07-243, X is γ-carboxyglutamic acid]”, the “apoptosis … compared to a control” value [1] is reported as “induced apoptosis”.
In the case of “RR linear (NITXR) (RRNIT[Gla]R; listed as Homo sapiens) [inhibiting peptide 6, X is γ-carboxyglutamic acid]”, the “tumor progression compared to a control” value [2] is reported as “substantially reduced tumor progression”.
For “RR cyclic (NPLXK) (RRNPL[Gla]K; disulfide (positions not given here); also: NPLXK part cyclic via disulfide bridge, no Cys in given letters; listed as Homo sapiens) [inhibiting peptide 1, X is γ-carboxyglutamic acid]”, the “angiogenesis of the mouse aortic rings” value (WT mouse aortic rings) was “inhibited angiogenesis” and the “tumor progression compared to a control” value [2] was “substantially reduced tumor progression”.
For “HIV-TAT-(NPLXK) ({HIV‑TAT}-NPL[Gla]K; not fully specified; printed as HIV-TAT-(NPLXK); listed as Homo sapiens) [07-240, X is γ-carboxyglutamic acid]”, the “apoptosis … compared to a control” value [1] was “induced apoptosis”.
